The subject of one data set is Homo sapiens. The data set is described as follows: (§1) Evaluation of pharmacokinetic parameters for Olanzapine after single oral dose of Olanzapine tablet. Format: ADME, organism-based. The following applies: in vivo, po, dosed compound id 18, dosed compound name OLANZAPINE, regimen Single dose, tissue Plasma.
Data set [1] is described as follows: as §1. The class given is ADME, organism-based. The following applies: human, in vivo, regimen Single dose.
The mark [2] stands for this setting: dosed compound id 18, dosed compound name OLANZAPINE, tissue Plasma.

Regarding `Cc1cc2c(s1)Nc1ccccc1N=C2N1CCN(C)CC1` [OLANZAPINE], the Vd with Homo sapiens is 1000 L. For the same compound, in data set [1] (setting [2]), the Tmax is 6 h and the half-life is 30 h. The CL/F in data set [1] (dosed compound id 18, dosed compound name OLANZAPINE, tissue Plasma, read-out: CL(app) (converted)) is 417 mL/min. In addition, the dose excreted in data set [1] (dosed compound id 180, dosed compound name C-14 OLANZAPINE, tissue Urine, read-out: Excretion) was 7%.

These data come from ChEMBL document CHEMBL3832065, “DailyMed|setid=d976599a-0ee0-4fa4-afe6-bdfbca570afe | OLANZAPINE - olanzapine tablet, film coated|Rebel Distributors Corp”.
